Results on two compounds are retold here after ChEMBL document CHEMBL3046577, “Stereocontrolled synthesis of spirosuccinimide derivative of (+)-hydantocidin” (1995).

Holding throughout (type): functional
One assay has as its system Eleusine indica. As to the kind of experiment: Herbicidal activity against Eleusine indica at 1000 ppm relative to control.
The next assay has as its system Ambrosia artemisiifolia. As to the kind of experiment: Herbicidal activity against Ambrosia artemisiifolia (ragweed) at 1000 ppm relative to control.
Another assay has as its system Xanthium strumarium. The assay is described as follows: Herbicidal activity against Xanthium strumarium (cocklebur) at 1000 ppm relative to control.

The source made the active and inactive calls. The rule behind the calls is not given here.

`O=C1C[C@@]2(O[C@H](CO)[C@@H](O)[C@H]2O)C(=O)N1`: the Activity is recorded as 70% in the assay with Eleusine indica, 90% in the assay with Ambrosia artemisiifolia and 90% in the assay with Xanthium strumarium.

For `O=C1NC(=O)[C@@]2(N1)O[C@H](CO)[C@@H](O)[C@H]2O`, the outcome in the assay on Eleusine indica, with Ambrosia artemisiifolia and with Xanthium strumarium was Active.
